According to publication PMC7376644 (Pharmacology Research & Perspectives, 2020):
Values joined by “and” are separate entries in the source; they are usually repeats but may differ in a detail not shown here. Equal values may be shown once. Read-outs that look alike come from different tables or passages of the source.

Columns and labels:
CYP2C19 [1] = biological target: T1, CYP2C19 (Homo sapiens, UniProt P33261); assay: Enzyme kinetics of hydroxylated metabolites formation; assay type: in vitro ADME; set-up: purchased CYPEX CYP008; host or cells: Escherichia coli; conditions: CYP2C19, formation of cis‐4‐OH‐PZQ
T1 sequence (P33261 whole entry): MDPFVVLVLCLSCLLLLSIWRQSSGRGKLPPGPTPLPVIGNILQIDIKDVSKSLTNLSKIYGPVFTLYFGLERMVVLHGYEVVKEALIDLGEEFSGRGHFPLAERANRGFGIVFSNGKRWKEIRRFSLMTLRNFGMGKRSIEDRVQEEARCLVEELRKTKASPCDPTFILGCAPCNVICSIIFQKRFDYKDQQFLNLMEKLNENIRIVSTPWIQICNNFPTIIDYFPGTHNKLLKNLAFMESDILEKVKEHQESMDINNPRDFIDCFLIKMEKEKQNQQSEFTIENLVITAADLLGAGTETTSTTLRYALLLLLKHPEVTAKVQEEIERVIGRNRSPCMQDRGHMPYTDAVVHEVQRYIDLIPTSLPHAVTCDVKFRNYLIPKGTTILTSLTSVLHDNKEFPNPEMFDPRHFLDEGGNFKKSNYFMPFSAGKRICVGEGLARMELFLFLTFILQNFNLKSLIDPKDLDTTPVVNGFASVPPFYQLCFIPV
Description: The reactions were carried out in duplicate at each time point. Incubation conditions used for the determination of K M and V max were optimized for linearity with respect to time and protein concentrations. […] Metabolites were analyzed by LC‐MS/MS as described below. The K M and V max values of each marker substrate were determined using nonlinear least squares regression analysis in GraFit software (version 3.0, Erithacus Software Limited) and SigmaPlot Enzyme Kinetics Module for Windows 7.0 (SPSS, Inc).
(§1) The well‐stirred model was used to estimate the hepatic clearance (CLH) due to metabolism.

HLM [2] = assay: as above; assay type: in vitro ADME, human
Description: The reactions were carried out in duplicate at each time point. Incubation conditions used for the determination of K M and V max were optimized for linearity with respect to time and protein concentrations. […] Metabolites were analyzed by LC‐MS/MS as described below. The K M and V max values of each marker substrate were determined using nonlinear least squares regression analysis in GraFit software (version 3.0, Erithacus Software Limited) and SigmaPlot Enzyme Kinetics Module for Windows 7.0 (SPSS, Inc). […]

[3] = Intrinsic clearance, substrate depletion approach; assay type: in vitro ADME, human; conditions: human, human liver microsomes, pH 7.4; HLM, 1 µmol/L substrate
Description: (§2) The generic conditions were previously described by Masimirembwa and co‐workers. ^24 , ^25 Each reaction mixture consisted of substrate incubated with appropriate enzyme, substrate, and NADPH in potassium phosphate buffer pH 7.4 in a final volume of 200 µL. The substrate was diluted to 40% ACN so that the percent organic component in the final solution was maintained at 1%. The reactions were quenched with 3 volumes of stop solution containing ACN and 0.8% formic acid at 0, 5, 10, 20, 30, 40, and 60 minutes. This was followed by centrifugation at 4500 g for 20 minutes. An aliquot (50 µL) supernatant was collected and diluted (1:1) in water prior to LC‐MS/MS analysis.
(§3) Each reaction was monitored over 7 time points.
as §1

HLM [4] = assay: Intrinsic clearance, substrate depletion approach; assay type: in vitro ADME, human; conditions: HLM, substrate depletion
Description: as §2, §3, §1

[5] = PZQ-ketoconazole DDI pharmacokinetic study in healthy volunteers; assay type: in vivo, human; conditions: for AUC(0-inf) / AUC / CL/F / k el / half-life / Tmax / Vd/F: male, human, plasma
Description: Plasma samples were obtained from the AiBST biobank. […] Each participant served as their own control. Each participant provided written informed consent to take part in the study and the study was carried out according to Helsinki Declaration of 1975, as revised in 2008. The study was approved by the Medical Research Council of Zimbabwe (MRCZ) and the Medicines Controls Authority of Zimbabwe (MCAZ). […] The samples were vortexed for 30 seconds and left under gentle agitation for 25 minutes. […] From the supernatant, 20 μL was injected onto the chiral HPLC system for analysis. […] Detection was done using a UV diode array detector at 210 nm. […] The data were gathered and processed using Agilent OpenLab CDS for Chemstation software version 1.9. Linear calibration curves were plotted as concentration vs peak area ratio for analyte to IS with no weighting. […] The pharmacokinetic (PK) analysis was performed using the WinNonlin program, version 8.2 (Pharsight Corp). […] A non-compartmental approach was used for curve plotting and parameter calculation. The area under the curve (AUC) from time 0 to the last sampling time point (AUCt) was computed using the log-linear trapezoidal rule. The linear trapezoidal rule was used for the ascending part of the PK curve, while the log trapezoidal rule was used for the descending part of the graph. The AUC extrapolated to infinite time was calculated as AUC∞ = AUCt + Ct/K el where Ct is the concentration of the last sample taken and K el is the terminal elimination rate constant. The terminal elimination rate constant K el was determined by least squares regression analysis in the terminal phase of the semi log concentration-time curve. […] Statistical analysis was performed using the GraFit software (version 3.0, Erithacus Software Limited). […] Analysis of variance (ANOVA) was performed on the AUC and C max after transformation of the data to their natural logarithmic (ln) values.

CYP2C19 [6] = biological target: T1, CYP2C19; assay: in vitro; conditions: recombinant CYP2C19, pH 7.4
[7] = PZQ + ketoconazole vs PZQ alone
[8] = PZQ + ketoconazole vs PZQ alone, listed as S‐Praziquantel
[9] = single oral 20 mg/kg PZQ alone, n = 9, listed as S‐Praziquantel, 20 mg/kg

## O=C(C1CCCCC1)N1CC(=O)N2CCc3ccccc3[C@H]2C1 [S‐PZQ, S‐Praziquantel]
CYP2C19 [1]
  CLuH,int: 2.44 mL/min/kg and 2.440 mL/min/kg
HLM [2]; formation of X‐OH‐PZQ
  K M [SD]: 61.00 [22.12] µmol/L
  V max [SD]: 6.3 nmol/min/mg protein and 6.300 [1.102] nmol/min/mg protein
HLM [2]; formation of cis‐4‐OH‐PZQ
  K M [SD]: 44.30 [12.06] µmol/L
  V max [SD]: 0.2700 [0.02999] nmol/min/mg protein
[3]
  half-life at 1 µmol/L: 0.492 h
HLM [4]
  Predicted CLuH,int: 97.50 mL/min/kg
HLM [4]; well‐stirred model
  Predicted CLH: 10.78 mL/min/kg
[5]; 20 mg/kg PZQ plus 200 mg ketoconazole, n = 9
  Clearance/F, treatment mean (SD): 211.5 (74.47) L/h
[5]; [7]
  AUCinf, difference observed %: 68%
  AUCt0‐tlast, difference observed %: 56.09%
  C max, difference observed %: 107.11%
  Clearance/F, difference observed %: −37.81%
  Half life, difference observed %: 31.52%
[5]; [8]
  AUCinf, difference observed %: 67.71%
  C max, difference observed %: 107.1%
[5]; oral, 20 mg/kg, 20 mg/kg PZQ plus 200 mg ketoconazole, n = 9, read-out: AUCinf, treatment geo mean
  AUC(0-inf): 5960 ng·h/mL
[5]; oral, 20 mg/kg, 20 mg/kg PZQ plus 200 mg ketoconazole, n = 9, read-out: AUCinf, treatment mean (SD)
  AUC(0-inf): 6460 ng·h/mL
[5]; oral, 20 mg/kg, 20 mg/kg PZQ plus 200 mg ketoconazole, n = 9, read-out: AUCt0‐tlast, treatment geo mean
  AUC: 4680 ng·h/mL
[5]; oral, 20 mg/kg, 20 mg/kg PZQ plus 200 mg ketoconazole, n = 9, read-out: AUCt0‐tlast, treatment mean (SD)
  AUC: 4910 ng·h/mL
[5]; oral, 20 mg/kg, 20 mg/kg PZQ plus 200 mg ketoconazole, n = 9, read-out: Clearance/F, treatment geo mean (converted)
  CL/F: 3340 mL/min
[5]; oral, 20 mg/kg, 20 mg/kg PZQ plus 200 mg ketoconazole, n = 9, read-out: Clearance/F, treatment mean (SD) (converted)
  CL/F: 3530 mL/min
[5]; oral, 20 mg/kg, 20 mg/kg PZQ plus 200 mg ketoconazole, n = 9, read-out: Elimination rate constant, treatment geo mean (converted)
  k el: 6.11e-05 s⁻¹
[5]; oral, 20 mg/kg, 20 mg/kg PZQ plus 200 mg ketoconazole, n = 9, read-out: Elimination rate constant, treatment mean (SD) (converted)
  k el: 6.94e-05 s⁻¹
[5]; oral, 20 mg/kg, 20 mg/kg PZQ plus 200 mg ketoconazole, n = 9, read-out: Half life, treatment geo mean (converted)
  half-life: 3.17 h
[5]; oral, 20 mg/kg, 20 mg/kg PZQ plus 200 mg ketoconazole, n = 9, read-out: Half life, treatment mean (SD) (converted)
  half-life: 3.63 h
[5]; oral, 20 mg/kg, 20 mg/kg PZQ plus 200 mg ketoconazole, n = 9, read-out: T max, treatment geo mean
  Tmax: 2.35 h
[5]; oral, 20 mg/kg, 20 mg/kg PZQ plus 200 mg ketoconazole, n = 9, read-out: T max, treatment mean (SD)
  Tmax: 2.44 h
[5]; oral, 20 mg/kg, 20 mg/kg PZQ plus 200 mg ketoconazole, n = 9, read-out: V d/F, treatment geo mean
  Vd/F: 915 L
[5]; oral, 20 mg/kg, 20 mg/kg PZQ plus 200 mg ketoconazole, n = 9, read-out: V d/F, treatment mean (SD)
  Vd/F: 967 L
[5]; oral, 20 mg/kg, AUC, PZQ alone
  AUC: 3850 ± 1430 ng·h/mL
[5]; oral, 20 mg/kg, read-out: AUC from the in vivo pharmacokinetic study
  AUC: 3300 ng·h/mL
[5]; oral, AUC, PZQ + KTZ
  AUC: 6460 ± 3100 ng·h/mL
[5]; po, 20 mg/kg, single oral 20 mg/kg PZQ alone, n = 9, read-out: AUCinf, reference geo mean
  AUC(0-inf): 3610 ng·h/mL
[5]; po, 20 mg/kg, single oral 20 mg/kg PZQ alone, n = 9, read-out: AUCinf, reference mean (SD)
  AUC(0-inf): 3850 ng·h/mL
[5]; po, 20 mg/kg, single oral 20 mg/kg PZQ alone, n = 9, read-out: AUCt0‐tlast, reference geo mean
  AUC: 2970 ng·h/mL
[5]; po, 20 mg/kg, single oral 20 mg/kg PZQ alone, n = 9, read-out: AUCt0‐tlast, reference mean (SD)
  AUC: 3150 ng·h/mL
[5]; po, 20 mg/kg, single oral 20 mg/kg PZQ alone, n = 9, read-out: Clearance/F, reference geo mean (converted)
  CL/F: 5480 mL/min
[5]; po, 20 mg/kg, single oral 20 mg/kg PZQ alone, n = 9, read-out: Clearance/F, reference mean (SD) (converted)
  CL/F: 5670 mL/min
[5]; po, 20 mg/kg, single oral 20 mg/kg PZQ alone, n = 9, read-out: Elimination rate constant, reference geo mean (converted)
  k el: 8.33e-05 s⁻¹
[5]; po, 20 mg/kg, single oral 20 mg/kg PZQ alone, n = 9, read-out: Elimination rate constant, reference mean (SD) (converted)
  k el: 0.0001 s⁻¹
[5]; po, 20 mg/kg, single oral 20 mg/kg PZQ alone, n = 9, read-out: Half life, reference geo mean (converted)
  half-life: 2.3 h
[5]; po, 20 mg/kg, single oral 20 mg/kg PZQ alone, n = 9, read-out: Half life, reference mean (SD) (converted)
  half-life: 2.76 h
[5]; po, 20 mg/kg, single oral 20 mg/kg PZQ alone, n = 9, read-out: T max, reference geo mean
  Tmax: 2.96 h
[5]; po, 20 mg/kg, single oral 20 mg/kg PZQ alone, n = 9, read-out: T max, reference mean (SD)
  Tmax: 3 h
[5]; po, 20 mg/kg, single oral 20 mg/kg PZQ alone, n = 9, read-out: V d/F, reference geo mean
  Vd/F: 1090 L
[5]; po, 20 mg/kg, single oral 20 mg/kg PZQ alone, n = 9, read-out: V d/F, reference mean (SD)
  Vd/F: 1200 L
[5]; single oral 20 mg/kg PZQ alone, n = 9, 20 mg/kg
  Clearance/F, reference mean (SD): 340 ± 97 L/h
[5]; [9]
  C max, reference mean (SD): 782.9 (171.7) ng/mL
  Clearance/F, reference mean (SD): 340.1 (96.37) L/h
CYP2C19 [6]
  half-life at 1 µmol/L: 4.13 min
